Laboratory results reported in ChEMBL document CHEMBL1148661, “SAR studies: designing potent and selective LXR agonists” (Bioorg Med Chem Lett, 2006).

Experiments:
[1] = molecular target: T1, Peroxisome proliferator-activated receptor delta (Homo sapiens, UniProt Q03181)
T1 sequence (Q03181 whole entry): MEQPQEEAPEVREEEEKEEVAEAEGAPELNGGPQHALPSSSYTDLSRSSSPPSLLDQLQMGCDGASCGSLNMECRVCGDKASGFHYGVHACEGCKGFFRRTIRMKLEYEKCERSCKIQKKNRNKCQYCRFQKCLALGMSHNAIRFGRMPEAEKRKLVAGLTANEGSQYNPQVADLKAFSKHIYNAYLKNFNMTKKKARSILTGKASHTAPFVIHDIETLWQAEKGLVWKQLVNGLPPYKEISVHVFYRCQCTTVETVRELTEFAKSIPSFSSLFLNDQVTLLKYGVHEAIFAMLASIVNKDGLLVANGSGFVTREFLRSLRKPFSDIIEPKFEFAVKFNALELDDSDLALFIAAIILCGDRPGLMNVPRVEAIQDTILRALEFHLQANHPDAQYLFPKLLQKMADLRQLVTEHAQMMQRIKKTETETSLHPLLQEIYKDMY

[2] = molecular target: T2, Oxysterols receptor LXR-beta (Homo sapiens, UniProt P55055); format: functional, cell-based, CHO
T2 sequence (P55055 whole entry): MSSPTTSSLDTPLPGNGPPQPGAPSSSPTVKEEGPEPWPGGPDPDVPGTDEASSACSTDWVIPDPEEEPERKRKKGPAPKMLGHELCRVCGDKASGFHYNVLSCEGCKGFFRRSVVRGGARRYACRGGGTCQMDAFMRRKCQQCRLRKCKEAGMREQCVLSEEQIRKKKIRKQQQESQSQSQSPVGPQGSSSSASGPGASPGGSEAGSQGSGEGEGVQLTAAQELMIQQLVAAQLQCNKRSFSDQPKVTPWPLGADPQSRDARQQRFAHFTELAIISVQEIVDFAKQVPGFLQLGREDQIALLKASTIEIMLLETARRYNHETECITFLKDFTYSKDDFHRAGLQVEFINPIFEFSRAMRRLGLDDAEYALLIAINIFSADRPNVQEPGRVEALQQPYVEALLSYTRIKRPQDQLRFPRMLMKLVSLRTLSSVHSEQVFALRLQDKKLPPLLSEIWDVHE

[3] = molecular target: T3, Oxysterols receptor LXR-alpha (Homo sapiens, UniProt Q13133)
T3 sequence (Q13133 whole entry): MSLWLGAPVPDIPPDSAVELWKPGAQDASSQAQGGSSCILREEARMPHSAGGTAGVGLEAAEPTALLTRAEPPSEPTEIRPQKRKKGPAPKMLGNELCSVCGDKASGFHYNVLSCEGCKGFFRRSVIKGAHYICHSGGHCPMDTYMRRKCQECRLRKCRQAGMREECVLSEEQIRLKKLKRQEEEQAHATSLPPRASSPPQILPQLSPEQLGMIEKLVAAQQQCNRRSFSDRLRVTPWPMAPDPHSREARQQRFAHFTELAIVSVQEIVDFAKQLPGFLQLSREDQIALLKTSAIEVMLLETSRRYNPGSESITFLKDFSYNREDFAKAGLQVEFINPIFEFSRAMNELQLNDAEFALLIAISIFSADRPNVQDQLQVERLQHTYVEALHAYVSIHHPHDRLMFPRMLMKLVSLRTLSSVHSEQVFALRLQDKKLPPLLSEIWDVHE

[4] = molecular target: T4, Peroxisome proliferator-activated receptor alpha (Homo sapiens, UniProt Q07869)
T4 sequence (Q07869 whole entry): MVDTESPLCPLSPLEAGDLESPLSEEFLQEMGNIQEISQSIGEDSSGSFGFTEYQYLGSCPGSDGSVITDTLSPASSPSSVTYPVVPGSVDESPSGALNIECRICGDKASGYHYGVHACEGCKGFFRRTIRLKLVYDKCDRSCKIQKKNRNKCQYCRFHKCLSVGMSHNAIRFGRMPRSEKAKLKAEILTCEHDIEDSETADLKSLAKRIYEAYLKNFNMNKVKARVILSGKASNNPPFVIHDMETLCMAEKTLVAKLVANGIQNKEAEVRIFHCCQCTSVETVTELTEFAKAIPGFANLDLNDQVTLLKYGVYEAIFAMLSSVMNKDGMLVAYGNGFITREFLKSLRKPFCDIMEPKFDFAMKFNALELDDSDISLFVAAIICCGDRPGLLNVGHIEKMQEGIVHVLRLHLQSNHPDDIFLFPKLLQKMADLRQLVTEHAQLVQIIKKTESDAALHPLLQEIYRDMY

[5] = molecular target: T2, Oxysterols receptor LXR-beta
[6] = molecular target: T3, Oxysterols receptor LXR-alpha; format: functional, cell-based, CHO
in vivo [7] = conditions: mouse
[8] = molecular target: T5, Nuclear receptor subfamily 1 group I member 2 (Homo sapiens, UniProt O75469)
T5 sequence (O75469 whole entry): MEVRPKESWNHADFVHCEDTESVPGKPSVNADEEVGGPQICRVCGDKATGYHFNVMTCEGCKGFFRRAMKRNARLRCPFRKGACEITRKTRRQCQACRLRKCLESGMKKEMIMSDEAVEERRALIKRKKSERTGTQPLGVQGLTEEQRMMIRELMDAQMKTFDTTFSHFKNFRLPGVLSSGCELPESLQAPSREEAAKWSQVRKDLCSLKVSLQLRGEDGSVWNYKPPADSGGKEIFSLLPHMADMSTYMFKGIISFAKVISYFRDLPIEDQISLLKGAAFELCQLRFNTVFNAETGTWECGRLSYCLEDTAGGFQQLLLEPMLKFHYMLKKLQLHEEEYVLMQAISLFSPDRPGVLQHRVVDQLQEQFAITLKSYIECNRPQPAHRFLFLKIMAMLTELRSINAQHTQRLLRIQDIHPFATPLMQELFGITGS

in vivo [9] = conditions: mouse, iv, 0.5 mg/kg
in vivo [10] = conditions: mouse, iv, 0.5 mg/kg; remark: listed apart in the source
Mus musculus = species: Mus musculus; conditions: in vivo

Structure (SMILES) | IC50 [1] [nM] | EC50 [2] [nM] | IC50 [3] [nM] | IC50 [4] [nM] | IC50 [5] [nM] | EC50 [6] [nM] | half-life (in vivo [7]) [h] | IC50 [8] [nM] | Vd (in vivo [9]) [L/kg] | clearance (in vivo [10]) [mL/min/kg] | AUC (Mus musculus) [µM·kg·h/mg]
CCCc1c(OCCCN(C)c2ccc(CC(=O)O)cc2)ccc2c(C(F)(F)F)noc12 | 310 | 360 | 18 | 310 | 25 | 450 | – | – | – | – | –
CCCc1c(OCCCN(C(C)=O)c2ccc(CC(=O)O)cc2)ccc2c(C(F)(F)F)noc12 | – | – | 6400 | – | – | – | – | – | – | – | –
CCCc1c(OCCCNc2ccc(CC(=O)O)cc2)ccc2c(C(F)(F)F)noc12 | 88 | 7700 | 68 | 16 | 89 | 8000 | – | – | – | – | –
CCCc1c(OCCCN(C)c2ccc(C(=O)O)cc2)ccc2c(C(F)(F)F)noc12 | – | 5100 | 79 | – | 190 | 6000 | – | – | – | – | –
CCCc1c(OCCCN(C)c2ccc(CC(=O)O)cn2)ccc2c(C(F)(F)F)noc12 | – | – | 105 | – | 630 | 5000 | – | – | – | – | –
CCCc1c(OCCCN(C)c2ccccc2)ccc2c(C(F)(F)F)noc12 | – | – | 372 | – | 428 | – | – | – | – | – | –
CCCc1c(OCCCN2C(=O)Cc3cc(C(=O)O)ccc32)ccc2c(C(F)(F)F)noc12 | – | 4400 | 97 | – | 700 | 3000 | – | – | – | – | –
CCCc1c(OCCCN(C)c2cccc(CC(=O)O)c2)ccc2c(C(F)(F)F)noc12 | 93 | 3500 | 102 | 1500 | 98 | 2600 | – | – | – | – | –
CCCc1c(OCCCN2C(=O)Cc3cc(CC(=O)O)ccc32)ccc2c(C(F)(F)F)noc12 | – | 140 | 19 | – | 13 | 180 | 1 | > 10000 | 2.9 | 46 | 1
CCCc1c(OCCCn2ccc3cc(CCC(=O)O)ccc32)ccc2c(C(F)(F)F)noc12 | 70 | 700 | 18 | 450 | 6 | 820 | – | – | – | – | –
CCCc1c(OCCCn2nnc3cc(CC(=O)O)ccc32)ccc2c(C(F)(F)F)noc12 | – | 1700 | 410 | 4400 | 350 | 2300 | – | – | – | – | –
CCCc1c(OCCCN(CC)c2ccc(CC(=O)O)cc2)ccc2c(C(F)(F)F)noc12 | 8600 | – | 110 | 2600 | 140 | – | – | – | – | – | –
CCCc1c(OCCCN(C)c2ccc(CC(=O)O)c(Cl)c2)ccc2c(C(F)(F)F)noc12 | 1400 | 124 | 12 | – | 10 | 170 | – | – | – | – | –
CCCc1c(OCCCN(C)c2ccc(CC(=O)O)cc2C)ccc2c(C(F)(F)F)noc12 | – | – | 580 | 600 | 320 | – | – | – | – | – | –
CCCc1c(OCCCN(C=O)c2ccc(CC(=O)O)cc2)ccc2c(C(F)(F)F)noc12 | – | – | 6400 | – | – | – | – | – | – | – | –
CCCc1c(OCCCCc2ccc(CC(=O)O)cc2)ccc2c(C(F)(F)F)noc12 | – | – | 530 | – | 970 | – | – | – | – | – | –
CCCc1c(OCCCn2cnc3cc(CC(=O)O)ccc32)ccc2c(C(F)(F)F)noc12 | 1800 | 8600 | 180 | – | 410 | – | – | – | – | – | –
CCCc1c(OCCCOc2ccc(CC(=O)O)cc2Cl)ccc2c(C(F)(F)F)noc12 | – | 9700 | 39 | 230 | 65 | – | – | – | – | – | –
CCCc1c(OCCCn2ncc3cc(CC(=O)O)ccc32)ccc2c(C(F)(F)F)noc12 | – | 580 | 73 | 780 | 87 | 480 | – | – | – | – | –
CCCc1c(OCCCOc2ccc(CC(=O)O)cc2)ccc2c(C(F)(F)F)noc12 | 8 | – | 730 | 19 | 100 | – | – | – | – | – | –
CCCc1c(OCCCN(C)c2ncc(CC(=O)O)cn2)ccc2c(C(F)(F)F)noc12 | – | 470 | 26 | – | 55 | 620 | – | – | – | – | –
CCCc1c(OCCCSc2ccc(CC(=O)O)cc2Cl)ccc2c(C(F)(F)F)noc12 | 4 | – | 32 | 280 | – | 5900 | – | – | – | – | –
CCCc1c(OCCCn2ccc3cc(C(=O)O)ccc32)ccc2c(C(F)(F)F)noc12 | – | 2800 | 72 | 8300 | 199 | 1900 | – | – | – | – | –
CCCc1c(OCCCN(C)c2cnc(CC(=O)O)cn2)ccc2c(C(F)(F)F)noc12 | – | 150 | 90 | – | 40 | 540 | 2.1 | – | 2.8 | 17 | 7.5
CCCc1c(OCCCN(C)c2ncc(CC(=O)O)s2)ccc2c(C(F)(F)F)noc12 | – | 650 | 67 | – | 100 | 1100 | 1.2 | – | 1.2 | 13 | 3.1
CCCc1c(OCCCN(C)c2ccc(CC(=O)O)c(C(F)(F)F)c2)ccc2c(C(F)(F)F)noc12 | 540 | 1300 | 60 | 140 | 18 | 3600 | – | – | – | – | –
CCCc1c(OCCCN(C)c2ccc(CC(=O)O)cc2Cl)ccc2c(C(F)(F)F)noc12 | 49 | – | 630 | – | 170 | – | – | – | – | – | –
CCCc1c(OCCCn2ccc3cc(CC(=O)O)ccc32)ccc2c(C(F)(F)F)noc12 | – | 450 | 16 | 400 | 16 | 590 | 3.9 | – | 2.7 | 18 | 2.7
CCCc1c(OCCCN(C)c2ccc(CC(=O)O)c(C)c2)ccc2c(C(F)(F)F)noc12 | 150 | 303 | 117 | 870 | 26 | 1300 | – | – | – | – | –
O=C(O)Cc1cccc(OCCCN(Cc2cccc(C(F)(F)F)c2Cl)CC(c2ccccc2)c2ccccc2)c1 | – | – | – | – | – | – | 3.4 | – | 1.2 | 8 | 2
